Results: PubChem BioAssay AID1259411 (Chemical Carcinogenesis Research Information System (CCRIS), 2018)
Activity calls are given as the source filed them. The rule behind the calls is not given here.

Test system: rodent carcinogenicity bioassays, tumor incidence
Test: CCRIS carcinogenicity studies
Summary of the method: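 Archive of carcinogenicity, mutagenicity, tumor promotion and tumor inhibition results drawn from journals, NCI reports and other sources, expert-reviewed; covers 1985-2011 and is no longer updated.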

In the case of `NC(=O)OC1CO1` (stereo not given), the carcinogen call (Species: MOUSE, Strain/Sex: B6C3F1/MALE, Route: INTRAPERITONEAL, Dose: 0, 0.5, 1.25, 2.5 UG/G BW IN 10 µL TRIOCTANOIN ONCE (STUDY DURATION: 9 MO), Dose: 0, 0.5, 1.25, 2.5 UG/G BW IN 10 µL TRIOCTANOIN ONCE (STUDY DURATION: 9 MO), Tumor Site: Type of Lesion: LIVER: HEPATOMA) is reported as “active; positive”, the carcinogen call (Species: MOUSE, Strain/Sex: CD-1/FEMALE, Route: DERMAL, Dose: 0, 11.5 UMOL IN WEEKS 1 AND 2 THEN 5.7 UMOL IN WEEKS 3 AND 4 FOLLOWED BY 3.8 UMOL/WK FOR 28 WK (STUDY DURATION: 42 WK), Tumor Site: Type of Lesion: SKIN: PAPILLOMA, CARCINOMA) is reported as “active; positive” and the carcinogen call (Species: MOUSE, Strain/Sex: STRAIN-A/FEMALE, Route: INTRAPERITONEAL, Dose: 0, 34, 68 NMOL/G BW IN 5 µL TRIOCTANOIN ONCE (STUDY DURATION: 6 MO), Dose: 0, 34, 68 NMOL/G BW IN 5 µL TRIOCTANOIN ONCE (STUDY DURATION: 6 MO), Tumor Site: Type of Lesion: LUNG: ADENOMA) is reported as “active; positive”. The carcinogen call (Species: RAT, Strain/Sex: SPRAGUE-DAWLEY/FEMALE, Route: INTRAMUSCULAR, Dose: 0, 1.15, 2.30 UMOL IN 0.25 ML TRIOCTANOIN 1/WK FOR 10 WK (STUDY DURATION: 18 MO), Dose: 0, 1.15, 2.30 UMOL IN 0.25 ML TRIOCTANOIN 1/WK FOR 10 WK (STUDY DURATION: 18 MO), Tumor Site: Type of Lesion: INJECTION SITE: SARCOMA, MAMMARY GLAND: TUMOR) was “active; positive”.

For `Cc1cnc(C2=NC(C)(C(C)C)C(=O)N2)c(C(=O)O)c1` (stereo not given), the carcinogen call (Species: Mouse, Strain/Sex: CD-1[Crl(ICR)BR]/Female (55/Group), Route: Oral, Dose: 0, 1750, 3500, 7000 ppm of 96.9% imazapic in diet for 18 mo, study duration 18 mo, Dose: 0, 1750, 3500, 7000 ppm of 96.9% imazapic in diet for 18 mo, study duration 18 mo) was “inactive; negative”, the carcinogen call (Species: Mouse, Strain/Sex: CD-1[Crl(ICR)BR]/Male (55/Group), Route: Oral, Dose: 0, 1750, 3500, 7000 ppm of 96.9% imazapic in diet for 18 mo, study duration 18 mo, Dose: 0, 1750, 3500, 7000 ppm of 96.9% imazapic in diet for 18 mo, study duration 18 mo) was “inactive; negative” and the carcinogen call (Species: Rat, Strain/Sex: Crl:CD(SD)BR/Female (55/Group), Route: Oral, Dose: 0, 5000, 10,000, 20,000 ppm of 96.4% imazapic in diet for 24 mo, study duration 24 mo, Dose: 0, 5000, 10,000, 20,000 ppm of 96.4% imazapic in diet for 24 mo, study duration 24 mo) was “inactive; negative”. For the same compound, the carcinogen call (Species: Rat, Strain/Sex: Crl:CD(SD)BR/Male (55/Group), Route: Oral, Dose: 0, 5000, 10,000, 20,000 ppm of 96.4% imazapic in diet for 24 mo, study duration 24 mo, Dose: 0, 5000, 10,000, 20,000 ppm of 96.4% imazapic in diet for 24 mo, study duration 24 mo) was “inactive; negative”.

In the case of `ClC(Cl)C(Cl)(Cl)Cl`, the carcinogen call (Species: MOUSE, Strain/Sex: B6C3F1/FEMALE, Route: GAVAGE, Dose: 250, 500 MG/KG IN CORN OIL FOR 41-103 WK (STUDY DURATION: 41-103 WK), Tumor Site: Type of Lesion: LIVER: HEPATOCELLULAR ADENOMA, CARCINOMA) is reported as “active; positive”, the carcinogen call (Species: MOUSE, Strain/Sex: B6C3F1/MALE, Route: GAVAGE, Dose: 250, 500 MG/KG IN CORN OIL FOR 41-103 WK (STUDY DURATION: 41-103 WK), Tumor Site: Type of Lesion: LIVER: HEPATOCELLULAR CARCINOMA) is reported as “active; positive” and the carcinogen call (Species: RAT, Strain/Sex: F344/FEMALE, Route: GAVAGE, Dose: 0, 75, 150 MG/KG IN CORN OIL FOR 103 WK (STUDY DURATION: 103 WK), Dose: 0, 75, 150 MG/KG IN CORN OIL FOR 103 WK (STUDY DURATION: 103 WK)) is reported as “inactive; negative”. For the same compound, the carcinogen call (Species: RAT, Strain/Sex: F344/MALE, Route: GAVAGE, Dose: 0, 75, 150 MG/KG IN CORN OIL FOR 103 WK (STUDY DURATION: 103 WK), Dose: 0, 75, 150 MG/KG IN CORN OIL FOR 103 WK (STUDY DURATION: 103 WK), Tumor Site: Type of Lesion: KIDNEY: TUBULAR CELL ADENOMA) was “equivocal”.

For `CC(CNN)c1ccccc1` (stereo not given), the carcinogen call (Species: MOUSE, Strain/Sex: SWISS/FEMALE, Route: ORAL, Dose: 0, 156, 312 PPM IN DRINKING WATER DAILY FOR LIFE (STUDY DURATION: 120-140 WK), Dose: 0, 156, 312 PPM IN DRINKING WATER DAILY FOR LIFE (STUDY DURATION: 120-140 WK)) was “inactive; negative” and the carcinogen call (Species: MOUSE, Strain/Sex: SWISS/MALE, Route: ORAL, Dose: 0, 156, 312 PPM IN DRINKING WATER DAILY FOR LIFE (STUDY DURATION: 120-140 WK), Dose: 0, 156, 312 PPM IN DRINKING WATER DAILY FOR LIFE (STUDY DURATION: 120-140 WK)) was “inactive; negative”.

With `Cc1ccc2cc3c(ccc4ccccc43)c3c2c1CC3O` (stereo not given) the carcinogen call (Species: RAT, Strain/Sex: SPRAGUE-DAWLEY/FEMALE, Route: SUBCUTANEOUS, Dose: 0, 0.2 UMOL IN 0.1 ML SESAME OIL:DMSO (9:1) 3/WK FOR 20 DOSES (STUDY DURATION: 52 WK), Tumor Site: Type of Lesion: INJECTION SITE: SARCOMA) was “active; positive”.

With `NC(=O)N(N)c1ccccc1` the carcinogen call (Species: MOUSE, Route: ORAL, Tumor Site: Type of Lesion: LIVER, LUNG) was “active; positive”.

With `COc1ccc(C(=O)Nc2c(Cl)cncc2Cl)cc1OC1CCCC1` the carcinogen call (Species: RAT, Strain/Sex: SPRAGUE-DAWLEY/FEMALE, Route: INHALATION, Dose: 0, 0.125, 0.5, 1.0 MG/KG BW/D 1 HR/D IN A DRY-POWDER FORMULATION WITH LACTOSE VEHICLE USING A NOSE-ONLY AEROSOL EXPOSURE, Dose: 0, 0.125, 0.5, 1.0 MG/KG BW/D 1 HR/D IN A DRY-POWDER FORMULATION WITH LACTOSE VEHICLE USING A NOSE-ONLY AEROSOL EXPOSURE, Tumor Site: Type of Lesion: NASAL OLFACTORY REGION: TUMORS) was “active; positive” and the carcinogen call (Species: RAT, Strain/Sex: SPRAGUE-DAWLEY/MALE, Route: INHALATION, Dose: 0, 0.125, 0.5, 1.0 MG/KG BW/D 1 HR/D IN A DRY-POWDER FORMULATION WITH LACTOSE VEHICLE USING A NOSE-ONLY AEROSOL EXPOSURE, Dose: 0, 0.125, 0.5, 1.0 MG/KG BW/D 1 HR/D IN A DRY-POWDER FORMULATION WITH LACTOSE VEHICLE USING A NOSE-ONLY AEROSOL EXPOSURE, Tumor Site: Type of Lesion: NASAL OLFACTORY REGION: TUMORS) was “active; positive”.

`CCCCOC(=O)[C@@H](C)Oc1ccc(Oc2ccc(C#N)cc2F)cc1` was tested, and the carcinogen call (Species: Mouse, Strain/Sex: ICR (Crj:CD-1)/(Male (52/group), Route: Oral, Dose: 0, 3, 10, 100 ppm (0; 0.31; 0.99; 10.1 mg/kg/day) of 97.1% pure cyhalofop-butyl in diet for 78 wk, Dose: 0, 3, 10, 100 ppm (0; 0.31; 0.99; 10.1 mg/kg/day) of 97.1% pure cyhalofop-butyl in diet for 78 wk) was “inactive; negative” and the carcinogen call (Species: Mouse, Strain/Sex: ICR (Crj:CD-1)/Female (52/group), Route: Oral, Dose: 0, 3, 10, 100 ppm (0; 0.29; 0.99; 10.3 mg/kg/day) of 97.1% pure cyhalofop-butyl in diet for 78 wk, Dose: 0, 3, 10, 100 ppm (0; 0.29; 0.99; 10.3 mg/kg/day) of 97.1% pure cyhalofop-butyl in diet for 78 wk) was “inactive; negative”.

With `S=[Se]` the carcinogen call (Species: MOUSE, Strain/Sex: B6C3F1/FEMALE, Route: GAVAGE, Dose: 0, 20, 100 MG/KG IN 0.5% AQ CMC, Dose: 0, 20, 100 MG/KG IN 0.5% AQ CMC, Tumor Site: Type of Lesion: LUNG: ALVEOLAR/BRONCHIOLAR ADENOMA OR CARCINOMA, LIVER: HEPATOCELLULAR CARCINOMA) was “active; positive”, the carcinogen call (Species: MOUSE, Strain/Sex: B6C3F1/MALE, Route: GAVAGE, Dose: 0, 20, 100 MG/KG IN 0.5% AQ CMC, Dose: 0, 20, 100 MG/KG IN 0.5% AQ CMC) was “inactive; negative” and the carcinogen call (Species: MOUSE, Strain/Sex: ICR/FEMALE, Route: DERMAL, Dose: 0, 0.5, 1.0 MG/KG IN SALINE SOLN CONT 0.5% CMC 3/WK FOR 86 WK, Dose: 0, 0.5, 1.0 MG/KG IN SALINE SOLN CONT 0.5% CMC 3/WK FOR 86 WK) was “inactive; negative”. For the same compound, the carcinogen call (Species: MOUSE, Strain/Sex: ICR/MALE, Route: DERMAL, Dose: 0, 0.5, 1.0 MG/KG IN SALINE SOLN CONT 0.5% CMC 3/WK FOR 86 WK, Dose: 0, 0.5, 1.0 MG/KG IN SALINE SOLN CONT 0.5% CMC 3/WK FOR 86 WK) was “inactive; negative”, the carcinogen call (Species: RAT, Strain/Sex: F344/FEMALE, Route: GAVAGE, Dose: 0, 3, 15 MG/KG IN 0.5% AQ CMC, Dose: 0, 3, 15 MG/KG IN 0.5% AQ CMC, Tumor Site: Type of Lesion: LIVER: HEPATOCELLULAR CARCINOMA OR NEOPLASTIC NODULE) was “active; positive” and the carcinogen call (Species: RAT, Strain/Sex: F344/MALE, Route: GAVAGE, Dose: 0, 3, 15 MG/KG IN 0.5% AQ CMC, Dose: 0, 3, 15 MG/KG IN 0.5% AQ CMC, Tumor Site: Type of Lesion: LIVER: HEPATOCELLULAR CARCINOMA OR NEOPLASTIC NODULE) was “active; positive”.

With `c1ccc2c(c1)Oc1ccccc1O2` the carcinogen call (Species: MOUSE, Strain/Sex: B6C3F1/FEMALE, Route: ORAL, Dose: 0, 5000, 10000 PPM IN DIET, Dose: 0, 5000, 10000 PPM IN DIET) was “inactive; negative”, the carcinogen call (Species: MOUSE, Strain/Sex: B6C3F1/MALE, Route: ORAL, Dose: 0, 5000, 10000 PPM IN DIET, Dose: 0, 5000, 10000 PPM IN DIET) was “inactive; negative” and the carcinogen call (Species: RAT, Strain/Sex: OSBORNE-MENDEL/FEMALE, Route: ORAL, Dose: 0, 5000, 10000 PPM IN DIET, Dose: 0, 5000, 10000 PPM IN DIET) was “inactive; negative”. For the same compound, the carcinogen call (Species: RAT, Strain/Sex: OSBORNE-MENDEL/MALE, Route: ORAL, Dose: 0, 5000, 10000 PPM IN DIET, Dose: 0, 5000, 10000 PPM IN DIET) was “inactive; negative”.
